Results: ChEMBL document CHEMBL1614632, “Trend analysis of a database of intravenous pharmacokinetic parameters in humans for 670 drug compounds” (Drug Metab Dispos, 2008)
Numbered stars: 1 amine (or outer) side, 2 acyl side, 3 side chain; on linkers, the order of the positions; unused ones are H or OH. Bridge positions count the residues as written; N and C are the ends. Square brackets hold non-standard residues; d marks the D form. Peptide text beside a SMILES is read from it. * marks the point of attachment. hTyr(3S-OH,4S-OH,3'-OSO3H) = N[C@H](C(=O)O)[C@H](O)[C@@H](O)c1ccc(O)c(OS(=O)(=O)O)c1; Orn(4R-OH,5R-OH) = O=C([C@H](C[C@@H](O)[C@@H](O)N[*:3])N[*:1])[*:2]; Pro(3S-OH,4S-Me) = C[C@H]1CN[C@H](C(=O)O)[C@H]1O; X1 = CCCCCOc1ccc(-c2cc(-c3ccc(C(=O)*)cc3)no2)cc1; Gln(3R-OH) = NC(=O)C[C@@H](O)[C@H](N)C(=O)O; Hyp = O=C(O)[C@@H]1C[C@@H](O)CN1

Assays:
clinical [1] = conditions: human, in vivo, iv, t1/2
clinical [2] = conditions: human, in vivo, iv
clinical [3] = conditions: human, in vivo, iv, CL
clinical [4] = conditions: human, in vivo, iv, Vdss
clinical [5] = conditions: human, in vivo, iv; remark: listed apart in the source

Compound	half-life (clinical [1]) [h]	MRT (clinical [2]) [h]	clearance (clinical [3]) [mL/min/kg]	Vd (clinical [4]) [L/kg]	fraction unbound (clinical [5])
CCCCCOc1ccc(-c2cc(-c3ccc(C(=O)N[C@H]4C[C@@H](O)[C@@H](O)NC(=O)[C@@H]5[C@@H](O)[C@@H](C)CN5C(=O)[C@H]([C@H](O)CC(N)=O)NC(=O)[C@H]([C@H](O)[C@@H](O)c5ccc(O)c(OS(=O)(=O)O)c5)NC(=O)[C@@H]5C[C@@H](O)CN5C(=O)[C@H]([C@@H](C)O)NC4=O)cc3)no2)cc1 [MICAFUNGIN] (X1-[Orn(4R-OH,5R-OH)]T[Hyp][hTyr(3S-OH,4S-OH,3'-OSO3H)][Gln(3R-OH)][Pro(3S-OH,4S-Me)]; lactam 1-C)	16	21	0.17	0.21	0.0023
O=C1c2c(O)ccc(O)c2C(=O)c2c(NCCNCCO)ccc(NCCNCCO)c21 [MITOXANTRONE]	53	25	7.9	12	0.25
CO[C@@]1(NC(=O)C(C(=O)O)c2ccc(O)cc2)C(=O)N2C(C(=O)O)=C(CSc3nnnn3C)CO[C@@H]21 (stereo not given in full) [MOXALACTAM]	2.9	3.9	0.72	0.17	0.39
CC(C)(C)NCC(O)COc1cccc2c1CC(O)C(O)C2 (stereo not given) [NADOLOL]	9.2	11	2.9	1.9	0.14
CCOc1ccc2ccccc2c1C(=O)N[C@@H]1C(=O)N2[C@@H]1SC(C)(C)[C@@H]2C(=O)O [NAFCILLIN]	0.7	1.1	3.3	0.22	0.13
CCN[C@@H]1C[C@H](N)[C@@H](O[C@H]2OC(CN)=CC[C@H]2N)[C@H](O)[C@H]1O[C@H]1OC[C@](C)(O)[C@H](NC)[C@H]1O [NETILMICIN]	3.2	2.2	0.55	0.073	1
CCOC(=O)C1=C(C)NC(C)=C(C(=O)OC)C1c1cccc([N+](=O)[O-])c1 (stereo not given) [NITRENDIPINE]	8.2	4.1	25	6.1	0.02
COc1cc([C@@H]2c3cc4c(cc3C(OC3OC5COC(C)OC5C(O)C3N)C3COC(=O)[C@@H]32)OCO4)cc(OC)c1O (stereo not given in full) [NK-611]	14	17	0.4	0.3	0.013
Cc1onc(-c2ccccc2)c1C(=O)N[C@@H]1C(=O)N2[C@@H]1SC(C)(C)[C@@H]2C(=O)O [OXACILLIN]	0.7	0.5	6.3	0.19	0.07
CN(C)[C@@H]1C(O)=C(C(N)=O)C(=O)[C@@]2(O)C(O)=C3C(=O)c4c(O)cccc4[C@@](C)(O)[C@H]3[C@H](O)[C@@H]12 [OXYTETRACYCLINE]	10	12	2	1.7	0.9
CC(=O)O[C@H]1C(=O)[C@@]2(C)[C@H]([C@H](OC(=O)c3ccccc3)[C@]3(O)C[C@H](OC(=O)[C@H](O)[C@@H](NC(=O)c4ccccc4)c4ccccc4)C(C)=C1C3(C)C)[C@]1(OC(C)=O)CO[C@@H]1C[C@@H]2O [PACLITAXEL]	11	7.8	6.4	3	0.12
O=C1c2cccc3c2[C@H](CCC3)CN1[C@@H]1CN2CCC1CC2 [PALONOSETRON]	39	40	2.6	6.3	0.38
Fc1ccc([C@@H]2CCNC[C@H]2COc2ccc3c(c2)OCO3)cc1 [PAROXETINE]	13	17	18	18	0.06
CC1(C)S[C@@H]2[C@H](NC(=O)Cc3ccccc3)C(=O)N2[C@H]1C(=O)O [PENICILLIN G]	0.7	0.58	6.9	0.24	0.4
